This assay deals with greasy skin. Put plainly: in vivo panel test with a cosmetic composition on greasy skin. The note with it: cosmetic composition comprising the compound.

Structures are written as SMILES.

As to `CCCCCC1C(O)CCC1CC(=O)O` (stereo not shown) [3-hydroxy-2-pentylcyclopentaneacetic acid], the “efficacy for treating greasy skin” value is listed as “revealed the efficacy of the compound for treating greasy skin”.

The values are drawn from US9138389B2, “Use of a jasmonic acid compound for treating greasy skin” (L'OREAL, priority 2009, dated 2015).
